Test results published in US7329682B2, “Method for inhibiting 5-lipoxygenase using a benzoxazole derivative” (EWHA University-Industry Collaboration Foundation, priority 2003, dated 2008).
Like-named read-outs stand apart in the source and are kept apart here.

Key:
5-lipoxygenase = molecular target: T1, 5-lipoxygenase (Mus musculus, UniProt P48999); experiment: Measurement of 5-lipoxygenase inhibition activity (free LTC4 from SCF-stimulated bone marrow-derived mast cells, enzyme immunoassay); type: cell-based, mouse (male BALB/cJ mice)
T1 construct: over 98% of cells were confirmed as mast cells originated from bone marrow; endogenous in cells; host or cells: bone marrow-derived mast cells from male BALB/cJ mice
T1 sequence (P48999 1-674): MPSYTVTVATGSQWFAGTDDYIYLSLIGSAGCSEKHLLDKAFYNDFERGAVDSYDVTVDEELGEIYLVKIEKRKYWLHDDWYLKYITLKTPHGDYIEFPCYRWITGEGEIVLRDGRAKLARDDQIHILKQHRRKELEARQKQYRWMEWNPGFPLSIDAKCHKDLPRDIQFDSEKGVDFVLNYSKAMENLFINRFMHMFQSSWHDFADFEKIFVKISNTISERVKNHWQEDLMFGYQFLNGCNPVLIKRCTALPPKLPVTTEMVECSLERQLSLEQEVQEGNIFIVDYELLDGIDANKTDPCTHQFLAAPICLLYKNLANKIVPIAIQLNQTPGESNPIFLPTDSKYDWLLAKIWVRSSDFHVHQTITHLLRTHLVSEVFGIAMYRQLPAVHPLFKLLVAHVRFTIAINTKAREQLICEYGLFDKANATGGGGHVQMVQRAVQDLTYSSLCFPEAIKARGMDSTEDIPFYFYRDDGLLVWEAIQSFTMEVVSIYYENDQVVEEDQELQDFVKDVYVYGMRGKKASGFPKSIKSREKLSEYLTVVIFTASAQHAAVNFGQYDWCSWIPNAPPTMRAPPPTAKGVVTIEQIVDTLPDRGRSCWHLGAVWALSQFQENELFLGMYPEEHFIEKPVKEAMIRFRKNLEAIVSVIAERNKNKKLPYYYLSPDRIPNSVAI
Procedure: Measurement of 5-lipoxygenase Inhibition Activity
The obtained cells were suspended in the enriched medium to a concentration of 1×10^6 cells/ml. […] 100 ng/ml of stem cell factor (SCF) was added to the culture medium, and then, the culture was centrifuged at 120 xg for 20 min at 4° C. Then, the supernatant was separated and the amount of free LTC4 was determined using an LTC4 enzyme immunoassay kit (Cayman Chemical, Ann Arbor, Mich., U.S.A.). The stem cell factor (SCF) was recombinantly expressed by the baculovirus/insect cell expression system. After 20-min stimulation, the supernatants were isolated for further analysis by enzyme immunoassay.

[1] = mast cells originated from bone marrow of BALB/cJ mice, 1×10^6 cells/ml, 30 min preincubation at 37° C., 100 ng/ml SCF stimulation 20 min, free LTC4 by enzyme immunoassay, vs non-treated control, read-out: IC50

Row | IC50 (5-lipoxygenase; [1]) [µM] | melting point [°C] | SMILES | IC50 (5-lipoxygenase) [µM]
1 | 28.4 |  | O=[N+]([O-])c1ccc2oc(Nc3ccc(N=Nc4ccccc4)cc3)nc2c1 [Example 10] | 
2 | 1.58 | 270 to 272 | Clc1ccc(Nc2nc3cccnc3s2)cc1Cl [Example 3] | 
3 | 4.16 |  | Cc1ccc(-c2nc3ccccc3s2)cc1N [Example 19] | 
4 | 1.54 | 188 to 190 | FC(F)Sc1ccccc1-c1nc2ccccc2s1 [Example 15] | 
5 | 10.3 |  | CCc1ccc(Nc2nc3cccnc3s2)cc1 [Example 2] | 
6 | 2.5 |  | O=[N+]([O-])c1ccc(Cl)c(-c2nc3ccccc3s2)c1 [Example 18] | 
7 | 5.27 |  | Cc1ccc(-c2nc3ccccc3s2)cc1 [Example 20] | 
8 | 4.32 | 120 to 123 | N#Cc1ccc(-c2nc3ccccc3s2)cc1 [Example 16] | 
9 |  |  | O=[N+]([O-])c1ccc(-c2nc3ccccc3s2)cc1 [Example 14] | 11
10 | 1.21 | 123 to 125.3 | CCc1ccc(Nc2nc3ccccc3o2)cc1 [Example 6] | 
11 | 2.49 |  | ClCc1cccc(-c2nc3ccccc3s2)c1 [Example 22] | 
12 | 9.3 |  | CCCCOc1ccc(-c2nc3ccccc3s2)cc1 [Example 17] | 
13 | 8.91 |  | c1ccc(Nc2nc3ccccc3o2)cc1 [Example 5] | 
14 | 11.2 | 128 to 130.5 | Fc1ccc(-c2nc3ccccc3s2)cc1 [Example 13] | 
15 | 6.11 |  | CCSc1ncccc1-c1nc2ccccc2s1 [Example 23] | 
16 | 7.26 |  | c1ccc(-c2nc3ccccc3s2)cc1 [Example 12, 2-phenyl benzothiazole] | 
17 | 2.92 |  | Clc1ccccc1/C=C/c1nc2ccccc2s1 [Example 25] | 
18 | 12.6 | 191 to 192.3 | Clc1ccc2oc(Nc3ccc(N=Nc4ccccc4)cc3)nc2c1 [Example 7] | 
19 | 23.9 | 161 to 163.5 | CCc1ccc(Nc2nc3cc([N+](=O)[O-])ccc3o2)cc1 [Example 11] | 
20 | 2.76 | 132 to 133 | COc1ccc(-c2nc3ccccc3s2)cc1OC [Example 21] | 

Row | SMILES | IC50 (5-lipoxygenase; [1]) [µM] | melting point [°C] | IC50 (5-lipoxygenase) [µM]
21 | c1ccc(N=Nc2ccc(Nc3nc4ccccc4o3)cc2)cc1 [Example 4, 4-phenylazophenyl aminobenzoxazole] | 6.28 |  | 
22 | CCc1ccc(Nc2nc3cc(Cl)ccc3o2)cc1 [Example 9] |  | 196 to 198 | 0.95
